# Measurements: patent US5962516A, “Immunosuppressive compounds and methods” (priority 1999, dated 1999)
# Structures can show the parent of a compound that is named as a salt.
# Key:
# [1] = test system: IL-1β action on murine thymocytes; test: Inhibition of IL-1 action (IL-1 assay): suppression of IL-1β + PHA stimulated murine thymocyte proliferation; assay type: cell-based, mouse (C3H/HeN); conditions: 50% suppression of proliferation, 72 h culture
# Experimental: The ability of the above compounds to suppress the cell-proliferative effect of IL-1β in vitro (O'Gara, 1990) was examined as described in Example 11. Mouse thymocytes in culture were stimulated with IL-1β in the presence of phytohemagglutinin (PHA) and increasing concentrations of triptolide (control) and triptolide derivatives. The cells were cultured for 72 hours, and during the last 18 hours, incubated with tritiated thymidine. DNA synthesis was assessed by measuring incorporation of radiolabeled thymidine. The results expressed in terms of IC50 (concentration effective to cause 50% suppression of proliferation) are shown in Table 1.
# C3H/HeN mouse thymocytes were prepared and the action of IL-1 together with PHA, which stimulate proliferation of thymocyte, was measured using standard techniques (O'Gara, 1990; Mishell, 1980). Three- to six-week old C3H/HeN male mice (Simonson Laboratory, Gilroy, Calif.) were sacrificed by CO2 inhalation. Thymi were removed, separated from adherent non-thymic tissue, homogenized in Hank's balanced salt solution (HBSS, Gibco) using a glass homogenizer, and centrifuged at 200×g for 10 minutes at 15° C. Following an additional wash in HBSS, the thymocytes were resuspended in RPMI 1640 medium containing 50 uM 2-mercaptoethanol, 2 mM glutamine, 1 mM sodium pyruvate, non-essential amino acids 100 U/ml penicillin, 100 μg/ml streptomycin, and 10% heat-inactivated fetal bovine serum.
# Cells were cultured in round-bottom 96 well microtiter tissue culture plates, 6×10^5 cells per well, in a volume of 100 μl. Recombinant human IL-1β (R & D Systems #201-LB) together with Phytohemagglutinin P (PHA, Pharmacia) were added to the cells in volume of 25 μl per well to achieve a final concentration of 0.08 ng/ml and 10 μg/ml, respectively. Samples were dissolved in DMSO (10 mg/ml), then diluted in culture medium. Twenty five microliters of the test sample was added to each well to achieve the final compound concentrations for each experiment. Cells with PHA together with IL-1 served as controls. The total volume for each well was 150 μl.
# Plates were incubated at 37° C. in a 5% CO2 incubator for 72 hours. Fifty microliters of culture medium containing 0.5 μCi (^3 H)-thymidine (Amersham, 49 Ci/mmol) was added to each well prior to the last 18 hours of incubation. Cells were then harvested and counted. The results were reported as counts per minute (cpm) per 6×10^5 cells.
# The following formula was used to calculate the percent of suppression of IL-1 activity, and IC50 (concentration of sample yielding 50% suppression of proliferation) was used to indicate the suppressive activity of the sample.
# % suppression of IL-1 activity=(1-sample cpm/(IL-1+PHA control
# [2] = test system: mixed lymphocyte reaction (spleen cells from female C57BL/6 mice, stimulated with Balb/C spleen cells); test: Mixed lymphocyte reaction (MLR) assay; assay type: cell-based, mouse; conditions: 50% suppression of proliferation
# Experimental: Inhibition of cell proliferation by the subject compounds was assayed in the mixed lymphocyte reaction (MLR) (Bradley, 1980; Mishell, 1980). Spleen cells from female C57BL/6 mice, the "responder" cells, were prepared and co-cultured alone or in the presence of varying concentrations of the test compounds, with irradiated spleen cells prepared from female Balb/C mice, the "stimulator" cells. Prior irradiation of the stimulator cells rendered them unable to proliferate. A sample of the responder cells was also irradiated for use as a control. The non-irradiated responder cells proliferate in the presence of the allogenic stimulator cells. After a 78-hour incubation, tritiated thymidine was added to the mixed cell cultures, and incorporation of the labeled nucleotide into DNA was measured as an index of cell proliferation.
# In this study, the responder cells (R) were spleen cells from female C57BL16 mice, and the stimulator cells (S) were spleen cells from female Balb/C mice 6 to 8 weeks of age (Jackson, Bar Harbor, Me.). The spleens were aseptically removed from the mice and placed into 10 ml of cold HBSS in a sterile petri dish. The spleen was cut in half and gently pressed between the frosted ends of 2 sterile microslides. The cell suspension was then filtered through sterile nylon mesh (Nytex, Tetco #HD-3-85) into a 15 ml conical polypropylene centrifuge tube and centrifuged at 200×g for 10 minutes in a Beckman GPR tabletop centrifuge (GH-3.7 Rotor). Following an additional wash in HBSS, the spleen cells were resuspended in RPMI 1640 medium (Gibco) containing 50 uM 2-mercaptoethanol, 2 mM glutamine, 100 U/ml penicillin, 100 μg/ml streptomycin and 10% heat-inactivated fetal bovine serum.
# The stimulator cells (S) and part of the responder cells (R) were diluted at 10×10^6 cells/ml and irradiated at 20 cGy with a Cesium Irradiator (Department of Radiation Oncology, Stanford University, California) to inhibit proliferation. The irradiated cells were washed once to remove any toxic free radicals and their products resulting from irradiation. The responder cells (R), irradiated stimulator cells (Sx) and irradiated responder cell (Rx) were all diluted to 4×10^6 cells/ml.
# In the assay, 4×10^5 cells of R were cocultured with 4×10^5 cells of Sx in 200 μl of medium in round bottom 96 well tissue culture plates. Fifty micro-liters of test samples at various concentrations were added to the cells. The wells receiving no test samples would get the maximum proliferation. Several controls were used in the assay. The irradiated responder cells (Rx) were also added to the responder cells with and without the test samples. Rx or Sx alone were checked to make sure no proliferation occurred after irradiation. The spontaneous proliferation of R was also measured.
# The culture plates were incubated at 37° C. in a 5% CO2 incubator for four days. The cells were labelled with 1 μCi of (^3 H)-thymidine (Amersham, 49 Ci/mmol) in 20 μl of medium for the last 18 hours. Cells were then harvested and counted. The results were reported as counts per minute (cpm) per well. Percent of suppression and IC50 (concentration of sample producing 50% suppression of proliferation) were used to indicate the suppressive activity of the sample. Sample cpm was calculated as (R+Sx+sample)cpm-(R+Rx+sample)cpm; control cpm was calculated as (R+Sx)cpm-(R+Rx)cpm. Percent suppression of MLR activity was calculated as (1-sample cpm/control cpm)×100. IC50 was determined from percent suppression to indicate the suppressive activity of the sample.
compound,measurement,setting,value
"CC(C)C12OC1C1OC13C1(C)CCC4=C(COC4=O)C1CC1OC13C2OC(=O)CCC(=O)O (stereo not shown) [YM-276, Triptolide Succinate Lysine Salt]",IL-1 Assay IC50,[1],0.144 µg/mL
same,IC50,[1]; read-out: IL-1 Assay IC50,238 nM
same,MLR Assay IC50,[2],0.063 µg/mL
same,IC50,[2]; read-out: MLR Assay IC50,104 nM
